Assay results published in patent US6448256B1, “Antibiotic prodrugs” (University of Massachusetts, priority 1999, dated 2002).
Values after ≈ are worked out from the molar mass of the structure shown. Like-named read-outs stand apart in the source and are kept apart here.

What was measured:
[1] = tested on: vancomycin-resistant E. fecium; assay: MIC against vancomycin-resistant E. fecium (VRE, VREF*); assay type: cell-based; conditions: for MIC: Enterococcus, Table 5, vancomycin-resistant E. fecium
Description: (§1) To further investigate the antibacterial and/or DNA pol III inhibitory activity of various drug compounds, various ester-containing moieties N-linked to the EMAU core were produced as described in Example 1. These prodrugs were assayed for inhibition of B. subtilis DNA pol III and antibiotic activity against a number of bacteria.
(§2) The minimal inhibitory concentrations (MICs) of the four N3-substituted agents and EMAU were determined for B. subtilis (BS), methicillin-sensitive and resistant S. aureus (SA & MRSA), vancomycin-sensitive and resistant E. fecalis (EF& VREF), vancomycin-resistant E. fecium (VREF*), and E. coli (EC) as a Gram-negative control.

E. coli = assay: MIC against E. coli (Gram-negative control); assay type: cell-based; conditions: for MIC: Escherichia coli, Table 5, Gram-negative control
Description: as §1, §2

E. fecalis = assay: MIC against E. fecalis; assay type: cell-based; conditions: for MIC: Table 5, vancomycin-sensitive, read-out: MIC EF
Description: as §1, §2

SA pol III = molecular target: T1, SA pol III (Staphylococcus aureus, UniProt P0C1P9); assay: Inhibition of S. aureus pol III (Ki); assay type: biochemical; conditions: Table 4, average of 3 determinations, standard deviation 13.4%
T1 sequence (P0C1P9 1-1435): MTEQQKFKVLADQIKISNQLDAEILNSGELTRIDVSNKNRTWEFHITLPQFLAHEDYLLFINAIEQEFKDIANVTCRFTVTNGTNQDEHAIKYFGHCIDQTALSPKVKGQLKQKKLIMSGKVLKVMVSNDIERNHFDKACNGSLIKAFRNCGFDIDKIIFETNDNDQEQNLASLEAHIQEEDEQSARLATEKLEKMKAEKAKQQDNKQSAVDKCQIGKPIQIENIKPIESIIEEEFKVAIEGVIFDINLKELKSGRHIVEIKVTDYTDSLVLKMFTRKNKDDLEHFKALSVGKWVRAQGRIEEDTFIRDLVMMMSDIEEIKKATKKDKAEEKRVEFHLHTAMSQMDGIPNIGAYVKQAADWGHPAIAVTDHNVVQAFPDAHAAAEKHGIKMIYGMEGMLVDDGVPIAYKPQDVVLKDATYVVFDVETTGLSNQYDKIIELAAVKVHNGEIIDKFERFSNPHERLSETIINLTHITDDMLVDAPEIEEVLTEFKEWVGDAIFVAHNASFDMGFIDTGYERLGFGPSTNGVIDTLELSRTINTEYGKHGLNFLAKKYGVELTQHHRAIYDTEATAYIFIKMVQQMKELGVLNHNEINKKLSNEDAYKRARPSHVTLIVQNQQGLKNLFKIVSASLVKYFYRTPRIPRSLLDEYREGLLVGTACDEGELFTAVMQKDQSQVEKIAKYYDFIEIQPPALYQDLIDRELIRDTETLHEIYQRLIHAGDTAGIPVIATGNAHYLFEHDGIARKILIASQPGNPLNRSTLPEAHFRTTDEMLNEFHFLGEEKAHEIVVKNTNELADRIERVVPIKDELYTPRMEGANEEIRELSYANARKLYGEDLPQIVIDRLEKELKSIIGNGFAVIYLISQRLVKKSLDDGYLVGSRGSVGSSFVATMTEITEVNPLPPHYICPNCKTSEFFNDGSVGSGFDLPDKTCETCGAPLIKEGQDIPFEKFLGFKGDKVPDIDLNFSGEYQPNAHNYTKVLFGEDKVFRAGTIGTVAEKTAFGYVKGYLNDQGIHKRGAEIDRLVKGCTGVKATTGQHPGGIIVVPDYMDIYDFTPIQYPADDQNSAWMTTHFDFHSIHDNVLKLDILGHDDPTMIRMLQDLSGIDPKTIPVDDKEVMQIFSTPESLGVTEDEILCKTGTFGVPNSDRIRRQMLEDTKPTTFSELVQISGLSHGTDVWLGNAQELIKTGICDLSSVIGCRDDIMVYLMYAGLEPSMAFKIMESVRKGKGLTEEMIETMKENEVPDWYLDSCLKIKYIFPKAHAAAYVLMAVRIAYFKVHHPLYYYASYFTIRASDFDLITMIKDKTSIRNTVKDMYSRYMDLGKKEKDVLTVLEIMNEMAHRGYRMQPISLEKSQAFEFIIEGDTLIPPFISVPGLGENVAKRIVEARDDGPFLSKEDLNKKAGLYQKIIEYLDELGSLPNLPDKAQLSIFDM
Description: (§3) The competitive inhibitor constants (Ki) of selected EMAU compounds were determined with three different pol Ills: the pol III enzyme from Bacillus subtilis (BS pol III), and the pol III enzymes of the clinically relevant pathogens, Enterococcus fecalis (EF pol III) and Staphylococcus aureus (SA pol 111).

MRSA = assay: MIC against methicillin-resistant S. aureus strain MRSA / MRSA1; assay type: cell-based; conditions: for MIC: Staphylococcus aureus, MRSA, Table 5
Description: as §1, §2

MRSA2 = assay: MIC against methicillin-resistant S. aureus strain MRSA2; assay type: cell-based; conditions: for MIC: Staphylococcus aureus, Table 5
Description: as §1, §2

EF pol III = EF pol III (Enterococcus faecalis, UniProt Q831W8); assay: Inhibition of E. fecalis pol III (Ki); assay type: biochemical
Description: as §3

B. subtilis [2] = assay: MIC against B. subtilis; assay type: cell-based; conditions: for MIC: Bacillus subtilis, Table 5, read-out: MIC BS
Description: as §1, §2

[3] = tested on: vancomycin-resistant E. fecalis; assay: MIC against vancomycin-resistant E. fecalis (VREF); assay type: cell-based; conditions: Table 5, vancomycin-resistant E. fecalis
Description: as §2

S. aureus = assay: MIC against S. aureus (methicillin-sensitive); assay type: cell-based; conditions: for MIC: Staphylococcus aureus
Description: as §1, §2

B. subtilis DNA pol III = B. subtilis DNA pol III (Bacillus subtilis, UniProt P13267); assay: Inhibition of B. subtilis DNA pol III (Ki); assay type: biochemical
Description: as §1, §3

B. subtilis [4] = assay: Antibacterial activity of crude compounds made by small scale synthesis; assay type: cell-based; conditions: Bacillus subtilis; crude reaction mixtures dissolved in DMSO, assayed directly
Description: 6-Anilinouracils were synthesized using small scale synthetic methods. One milligram quantities of 3-(3-methoxypropyl)-6-chlorouracil were heated with 42 substituted anilines in micro-test tubes at 130° C. for 20 minutes. The reaction mixtures were dissolved in DMSO and assayed directly for antibacterial activity.

[5] = tested on: S. aureus (methicillin-sensitive Smith strain); assay: ip/ip mouse protection against lethal S. aureus infection; assay type: in vivo, mice
Description: Step 1: Screening—Each candidate prodrug is screened for activity in an ip/ip S. aureus protection model. Candidates that display efficacy equivalent to that of HB-EMAU and HB-IMAU are selected for advanced pharmacokinetic analysis and application in the more relevant mouse thigh model of infection.
The efficacy of the propyl derivatives was tested against murine staphylococcal infection in vivo. A simple “ip/ip” system was used, in which 20 gram mice (10 each) were injected ip (intraperitoneally) with a lethal dose (2.3×10^7 CFU) of the methicillin-sensitive Smith strain of S. aureus. The mice were then immediately injected ip with the antibiotic agent as a 1:9 mixture of DMSO:peanut oil. Vancomycin was used as the positive control drug.
Both hydroxybutyl compounds were tested at 10 mg/kg in the mouse protection experiment against lethal S. aureus infection described in Example 4 above.

[6] = Prodrug stability in physiological saline; assay type: physicochemical
Description: (§4) The conversion rate of prodrugs can be measured by first establishing a reverse phase HPLC method for the detection of both prodrug and drug in a biological sample such as plasma or serum. A stock solution of prodrug, usually in saline, is diluted 1:5 in animal plasma or saline. […] If necessary, the sample can be thawed in a 37° C. water bath. Aliquots of the diluted sample are taken at 15, 30, 45, 60, 90, 120, and 180 minutes. Longer time points are usually needed for saline solutions because the rates of spontaneous hydrolysis are much longer than for enzyme-catalyzed hydrolysis. The aliquots are analyzed at a 1:10 dilution using HPLC, and the fraction of prodrug which has been converted at each time point calculated.
(§5) The rate of formation of the drug and the rate of decay of the prodrug had doubling and half-life times, respectively, of about 30 minutes. In contrast, the estimated half-life of Val-B-EMAU in physiological saline at 37° C. was greater then 5000 hours. The mechanism for the decomposition of Val-B-EMAU by plasma is presumed to involve esterases in the circulation.
(§6) To further define the conversion rate of Val-B-EMAU (4a), the prodrug was incubated in 80% mouse plasma.

E. fecium = assay: MIC against E. fecium; assay type: cell-based; conditions: Table 2
Description: as §1

Solubility in water = assay type: physicochemical; conditions: 25° C.
Excerpt: The prodrug 3-(L-valylbutyl)-EMAU (Val-B-EMAU, 4a) was synthesized as a hydrochloride. The structure was confirmed by NMR. The compound had high solubility in water. […] Two different synthesis methods were used.

[7] = Prodrug conversion in mouse plasma in vitro (HPLC); assay type: in vitro ADME
Description: as §4, §5, §6

[8] = Plasma pharmacokinetics after intravenous administration to mice; assay type: in vivo; conditions: mouse, plasma, intravenous, 25 mg/kg, tail vein, 25 mg/kg in saline (FIG. 1), read-out: half life of Val-B-EMAU in plasma
Description: (d) Elimination halfife and apparent volume of distribution. An appropriate dose of each agent (the maximum permitted by the results of the above dose/toxicity studies) is injected via the tail vein to a series of mice (e.g., 12). At specific times following injection (e.g., 10, 20, 30, 45, 90, and 150 minutes), mice (e.g., a pair) are restrained in DecapiCones and decapitated, and their blood collected individually by exsanguination into a sterile test tube.
The blood samples are centrifuged to yield clear plasma (yield: 0.4-0.6 ml per mouse). Approximately 0.2 ml of the plasma sample are used for HPLC analysis, using conditions established herein for quantitation of the compound. The individual plasma levels for each time point are averaged, and the data are analyzed to estimate Vd and half-life by established methods (Gibaldi, M. and D. Perrier. Pharmacokinetics. Marcel Dekker, Inc., New York, 1975).
Solutions of Val-B-EMAU in saline were next injected into the tail veins of mice at a dose of 25 mg/kg body weight. Animals were sacrificed at various times after dosing, and plasma was isolated and subjected to HPLC analysis.
Each value plotted in FIG. 3 represents the average of four measurements, each in a different animal.

[9] = Table 4, average of 3 determinations, standard deviation 13.4%, read-out: KI EF pol III
[10] = Table 5, methicillin-sensitive, read-out: MIC SA
[11] = Table 4, average of 3 determinations, standard deviation 13.4%, read-out: KI Bs pol III

Sequence of B. subtilis DNA pol III (P13267 whole entry): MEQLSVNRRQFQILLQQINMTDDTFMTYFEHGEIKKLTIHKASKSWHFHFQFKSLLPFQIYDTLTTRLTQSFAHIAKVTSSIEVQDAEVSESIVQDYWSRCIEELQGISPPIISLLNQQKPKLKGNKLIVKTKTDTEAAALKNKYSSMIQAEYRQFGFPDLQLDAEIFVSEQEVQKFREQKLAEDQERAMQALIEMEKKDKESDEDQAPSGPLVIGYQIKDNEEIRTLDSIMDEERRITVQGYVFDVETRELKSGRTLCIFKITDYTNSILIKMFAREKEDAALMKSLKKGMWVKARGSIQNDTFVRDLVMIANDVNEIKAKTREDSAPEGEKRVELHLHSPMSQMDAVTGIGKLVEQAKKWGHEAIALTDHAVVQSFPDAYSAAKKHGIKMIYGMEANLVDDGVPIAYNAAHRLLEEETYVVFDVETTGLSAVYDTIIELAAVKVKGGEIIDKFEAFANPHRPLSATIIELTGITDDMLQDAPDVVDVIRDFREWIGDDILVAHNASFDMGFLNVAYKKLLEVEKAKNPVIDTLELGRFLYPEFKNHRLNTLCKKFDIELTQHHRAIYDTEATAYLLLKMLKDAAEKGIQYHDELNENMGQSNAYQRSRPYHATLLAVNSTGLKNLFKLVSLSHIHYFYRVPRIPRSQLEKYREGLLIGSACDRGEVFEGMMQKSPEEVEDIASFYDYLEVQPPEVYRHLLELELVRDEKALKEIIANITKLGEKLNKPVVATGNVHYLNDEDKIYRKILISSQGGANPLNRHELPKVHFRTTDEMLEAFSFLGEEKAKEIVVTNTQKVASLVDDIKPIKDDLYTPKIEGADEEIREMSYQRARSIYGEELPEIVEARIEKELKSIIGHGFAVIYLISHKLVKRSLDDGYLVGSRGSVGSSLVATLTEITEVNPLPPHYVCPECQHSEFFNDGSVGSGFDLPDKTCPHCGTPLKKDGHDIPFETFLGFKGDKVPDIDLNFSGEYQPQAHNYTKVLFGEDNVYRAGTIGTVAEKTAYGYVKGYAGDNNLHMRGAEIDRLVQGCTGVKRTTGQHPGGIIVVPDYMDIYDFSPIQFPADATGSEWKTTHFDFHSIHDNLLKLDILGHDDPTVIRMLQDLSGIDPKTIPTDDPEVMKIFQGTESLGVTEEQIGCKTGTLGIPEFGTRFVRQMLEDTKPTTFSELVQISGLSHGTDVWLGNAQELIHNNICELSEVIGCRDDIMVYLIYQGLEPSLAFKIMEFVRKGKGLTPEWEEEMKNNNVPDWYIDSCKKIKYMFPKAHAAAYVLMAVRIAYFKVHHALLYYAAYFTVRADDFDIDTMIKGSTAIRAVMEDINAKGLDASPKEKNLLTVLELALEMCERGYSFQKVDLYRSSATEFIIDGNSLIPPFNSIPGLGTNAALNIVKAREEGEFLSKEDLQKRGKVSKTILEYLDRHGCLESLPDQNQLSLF

Structure (SMILES)	MIC [1] [µg/mL]	MIC (E. coli) [µg/mL]	MIC (E. fecalis) [µg/mL]	Ki (SA pol III) [µM]	MIC (MRSA) [µg/mL]	MIC (MRSA2) [µg/mL]	Ki (EF pol III; [9]) [µM]	MIC (B. subtilis [2]) [µg/mL]	MIC [3] [µg/mL]	MIC (S. aureus; [10]) [µg/mL]	Ki (B. subtilis DNA pol III; [11]) [µM]	also measured
CCc1cc(Nc2cc(=O)n(CCO)c(=O)[nH]2)ccc1C [HE-EMAU]	8.7 (≈ 30.1 µM)	> 35	6.5 (≈ 22.5 µM)	0.98	17.4 (≈ 60.1 µM)	17.4 (≈ 60.1 µM)	0.17	1.1 (≈ 3.8 µM)	8.7 (≈ 30.1 µM)	8.7 (≈ 30.1 µM)	0.2	
CCc1cc(Nc2cc(=O)[nH]c(=O)[nH]2)ccc1C [EMAU, 6-(3-ethyl-4-methylanilino)uracil, reference compound]	25 (≈ 102 µM)	> 35	25 (≈ 102 µM)	0.81	25 (≈ 102 µM)	25 (≈ 102 µM)		12 (≈ 48.9 µM)	25 (≈ 102 µM)	25 (≈ 102 µM)	0.25	Ki (EF pol III): 0.26 µM
CCc1cc(Nc2cc(=O)n(CCCOC)c(=O)[nH]2)ccc1C [MP-EMAU]	3.9 (≈ 12.3 µM)	> 35	1.9 (≈ 5.99 µM)	0.82	3.9 (≈ 12.3 µM)	3.9 (≈ 12.3 µM)	0.19	0.5 (≈ 1.58 µM)	1.9 (≈ 5.99 µM)	3.9 (≈ 12.3 µM)	0.24	MIC (B. subtilis [4]): 3.13 µg/mL (≈ 9.86 µM); animals protected ([5]; 10 mg/kg ip): roughly 50%; animals protected ([5]; lower dose (5 mg/kg) ip): none
CCc1cc(Nc2cc(=O)n(CCOC)c(=O)[nH]2)ccc1C [ME-EMAU]	8.3 (≈ 27.4 µM)	> 35	6.2 (≈ 20.4 µM)	0.82	8.3 (≈ 27.4 µM)	12.4 (≈ 40.9 µM)	0.16	1 (≈ 3.3 µM)	6.2 (≈ 20.4 µM)	10.3 (≈ 34 µM)	0.19	
CCc1cc(Nc2cc(=O)n(CCCO)c(=O)[nH]2)ccc1C [HP-EMAU]	4.1 (≈ 13.5 µM)	> 35	4.1 (≈ 13.5 µM)	0.42	8.3 (≈ 27.4 µM)	8.3 (≈ 27.4 µM)	0.14	1 (≈ 3.3 µM)	4.1 (≈ 13.5 µM)	4.1 (≈ 13.5 µM)	0.33	animals protected ([5]; 5 mg/kg ip): 70%; protection of mice ([5]; 10 mg/kg ip, 10 mice, 2.3×10^7 CFU S. aureus Smith ip, DMSO:peanut oil 1:9): protected all mice
CCc1cc(Nc2cc(=O)n(CCCCOC(=O)[C@@H](N)C(C)C)c(=O)[nH]2)ccc1C [Val-B-EMAU, 3-(L-valylbutyl)-EMAU]												half-life ([6]; 37° C., read-out: estimated half-life in physiological saline): > 208 days; half-life ([6]; b125, read-out: half-life in physiological saline): 18.8 to 20.8 days; MIC E. fecium (E. fecium): 33 μ/ml; MIC VRE ([1]; Table 2, vancomycin-resistant E. fecium): 8 μ/ml; MIC E. coli (E. coli; Table 2): >33 μ/ml; MIC E. fecalis (E. fecalis; Table 2): 17 μ/ml; solubility (Solubility in water): > 10000 µg/mL; half-life ([7]; 80% mouse plasma, 37° C. (FIG. 2), read-out: prodrug half-life): 37.8 min; half-life ([7]; mouse plasma, 37° C., HPLC, read-out: half-life of decay of the prodrug): ~30 min; MIC MRSA (MRSA; Table 2): 33 μ/ml; MIC MRSA2 (MRSA2; Table 2): 33 μ/ml; MIC B. subtilis (B. subtilis [2]; Table 2): 4 μ/ml; MIC (S. aureus; Table 1, read-out: MIC S. aureus): < 20 µg/mL; MIC S. aureus (S. aureus; Table 2): 17 μ/ml; half-life [8]: 34 min; Ki (B. subtilis DNA pol III; Table 1, read-out: Ki B. subtilis pol III): 0.53 µM; Ki (B. subtilis DNA pol III; Table 2, prodrugs having the EMAU core, read-out: Ki B. subtilis DNA Pol III): 0.53 µM
